Measurements published in ChEMBL document CHEMBL3885861, “Open TG-GATES”.

Organism: Rattus norvegicus
Assay: Open TG-GATES - Regimen: Daily Repeat
Assay type: toxicity, organism-based, Sprague-Dawley
Set-up: regimen Daily Repeat, gender Male, age 6 weeks
Settings: in vivo, po, route gavage; for APTT / Bas / Eos / Fbg / Hb / Ht / Lym / MCH / MCHC / MCV / Mono / Neu / PT / Plat / RBC / Ret / WBC: tissue Blood; for KIDNEY_L / KIDNEY_R / KIDNEY_TOTAL: tissue Kidney; for LIVER: tissue Liver; for A/G / ALP / ALT / AST / BUN / CRE / Ca / Cl / DBIL / GLC / IP / K / LDH / Na / PL / RALB / TBIL / TC / TG / TP / gamma-GTP: tissue Plasma
[1] = 60 mg/kg, 72 h, dose level Middle, time 3 day
[2] = 60 mg/kg, […], dose level Middle, time 7 day
[3] = 60 mg/kg, […], dose level Middle, time 14 day
[4] = 60 mg/kg, […], dose level Middle, time 28 day
[5] = 200 mg/kg, 72 h, dose level High, time 3 day
[6] = 200 mg/kg, […], dose level High, time 7 day
[7] = 200 mg/kg, […], dose level High, time 14 day
[8] = 200 mg/kg, […], dose level High, time 28 day

## CCc1oc2ccccc2c1C(=O)c1cc(Br)c(O)c(Br)c1 [BENZBROMARONE]
[1]
  TERMINAL_BW: 238.9 g
  APTT: 16.6 s
  Bas: 0%
  Eos: 1%
  Fbg: 234.4 mg/dL
  Hb: 13.5 g/dL
  Ht: 40%
  Lym: 76.4%
  MCH: 21.6 pg
  MCHC: 33.8%
  MCV: 63.7 fL
  Mono: 7.2%
  Neu: 15.8%
  PT: 11.6 s
  Plat: 109.3 x10_4/uL
  RBC: 628.4 x10_4/ul
  Ret: 7.7%
  WBC: 107.1 x10_2/uL
  KIDNEY_L: 1.1 g
  KIDNEY_R: 1.1 g
  KIDNEY_TOTAL: 2.1 g
  LIVER: 14.3 g
  A/G: 2
  ALP: 793.8 IU/L
  ALT: 33.6 IU/L
  AST: 62.2 IU/L
  BUN: 18 mg/dL
  CRE: 0.6 mg/dL
  Ca: 10.3 mg/dL
  Cl: 106.2 meq/L
  DBIL: 0.014 mg/dL
  GLC: 190 mg/dL
  IP: 7.8 mg/dL
  K: 4.5 meq/L
  LDH: 104.4 IU/L
  Na: 140.2 meq/L
  PL: 138 mg/dL
  RALB: 4 g/dL
  TBIL: 0.3 mg/dL
  TC: 76.4 mg/dL
  TG: 62.8 mg/dL
  TP: 5.9 g/dL
  gamma-GTP: 0.8 IU/L
[2]
  TERMINAL_BW: 264.4 g
  APTT: 17.8 s
  Bas: 0%
  Eos: 1.2%
  Fbg: 234.6 mg/dL
  Hb: 14.4 g/dL
  Ht: 42.8%
  Lym: 80.8%
  MCH: 21.3 pg
  MCHC: 33.7%
  MCV: 63.3 fL
  Mono: 6.4%
  Neu: 11%
  PT: 12.2 s
  Plat: 119.4 x10_4/uL
  RBC: 675.2 x10_4/ul
  Ret: 5.6%
  WBC: 106.8 x10_2/uL
  KIDNEY_L: 1.2 g
  KIDNEY_R: 1.2 g
  KIDNEY_TOTAL: 2.4 g
  LIVER: 16.1 g
  A/G: 2.4
  ALP: 869.6 IU/L
  ALT: 28 IU/L
  AST: 57 IU/L
  BUN: 20 mg/dL
  CRE: 0.6 mg/dL
  Ca: 10.5 mg/dL
  Cl: 107.4 meq/L
  DBIL: 0 mg/dL
  GLC: 186.8 mg/dL
  IP: 7.8 mg/dL
  K: 5 meq/L
  LDH: 96.2 IU/L
  Na: 139.7 meq/L
  PL: 154 mg/dL
  RALB: 4.4 g/dL
  TBIL: 0.3 mg/dL
  TC: 82.6 mg/dL
  TG: 80 mg/dL
  TP: 6.3 g/dL
  gamma-GTP: 0.2 IU/L
[3]
  TERMINAL_BW: 327 g
  APTT: 17.5 s
  Bas: 0%
  Eos: 1%
  Fbg: 237 mg/dL
  Hb: 14.5 g/dL
  Ht: 43.2%
  Lym: 79.4%
  MCH: 21.1 pg
  MCHC: 33.5%
  MCV: 63.1 fL
  Mono: 7%
  Neu: 12.4%
  PT: 12.1 s
  Plat: 110.5 x10_4/uL
  RBC: 685.4 x10_4/ul
  Ret: 4.6%
  WBC: 129.3 x10_2/uL
  KIDNEY_L: 1.4 g
  KIDNEY_R: 1.3 g
  KIDNEY_TOTAL: 2.7 g
  LIVER: 20.1 g
  A/G: 2.1
  ALP: 872.6 IU/L
  ALT: 29.4 IU/L
  AST: 57.8 IU/L
  BUN: 20.2 mg/dL
  CRE: 0.6 mg/dL
  Ca: 10.5 mg/dL
  Cl: 106.3 meq/L
  DBIL: 0.01 mg/dL
  GLC: 191.4 mg/dL
  IP: 7.6 mg/dL
  K: 4.7 meq/L
  LDH: 97.4 IU/L
  Na: 140.3 meq/L
  PL: 156.4 mg/dL
  RALB: 4.5 g/dL
  TBIL: 0.3 mg/dL
  TC: 85.6 mg/dL
  TG: 85.8 mg/dL
  TP: 6.6 g/dL
  gamma-GTP: 0.8 IU/L
[4]
  TERMINAL_BW: 383.7 g
  APTT: 18.4 s
  Bas: 0%
  Eos: 1.6%
  Fbg: 232.6 mg/dL
  Hb: 15.2 g/dL
  Ht: 45.8%
  Lym: 84.2%
  MCH: 19.3 pg
  MCHC: 33.1%
  MCV: 58.2 fL
  Mono: 6%
  Neu: 8.8%
  PT: 12.3 s
  Plat: 107.4 x10_4/uL
  RBC: 787.4 x10_4/ul
  Ret: 2.8%
  WBC: 139.8 x10_2/uL
  KIDNEY_L: 1.5 g
  KIDNEY_R: 1.5 g
  KIDNEY_TOTAL: 2.9 g
  LIVER: 21.5 g
  A/G: 1.9
  ALP: 605.2 IU/L
  ALT: 34 IU/L
  AST: 54 IU/L
  BUN: 19.2 mg/dL
  CRE: 0.6 mg/dL
  Ca: 9.9 mg/dL
  Cl: 108.4 meq/L
  DBIL: 0.016 mg/dL
  GLC: 185.2 mg/dL
  IP: 6.9 mg/dL
  K: 4.5 meq/L
  LDH: 147.4 IU/L
  Na: 141 meq/L
  PL: 144.6 mg/dL
  RALB: 4.3 g/dL
  TBIL: 0.2 mg/dL
  TC: 84.4 mg/dL
  TG: 75.4 mg/dL
  TP: 6.6 g/dL
  gamma-GTP: 1 IU/L
[5]
  TERMINAL_BW: 217 g
  APTT: 22.6 s
  Bas: 0%
  Eos: 1.2%
  Fbg: 211 mg/dL
  Hb: 14 g/dL
  Ht: 41.9%
  Lym: 80%
  MCH: 21.9 pg
  MCHC: 33.5%
  MCV: 65.5 fL
  Mono: 5%
  Neu: 14.2%
  PT: 14.6 s
  Plat: 104.6 x10_4/uL
  RBC: 640.8 x10_4/ul
  Ret: 5.7%
  WBC: 124.5 x10_2/uL
  KIDNEY_L: 1 g
  KIDNEY_R: 1 g
  KIDNEY_TOTAL: 2 g
  LIVER: 15.3 g
  A/G: 2.6
  ALP: 1041.8 IU/L
  ALT: 45.5 IU/L
  AST: 69.2 IU/L
  BUN: 17 mg/dL
  CRE: 0.7 mg/dL
  Ca: 10 mg/dL
  Cl: 107.9 meq/L
  DBIL: 0.025 mg/dL
  GLC: 167.2 mg/dL
  IP: 6.7 mg/dL
  K: 4.4 meq/L
  LDH: 195 IU/L
  Na: 141.3 meq/L
  PL: 129.2 mg/dL
  RALB: 4.1 g/dL
  TBIL: 0.3 mg/dL
  TC: 73.2 mg/dL
  TG: 52.8 mg/dL
  TP: 5.7 g/dL
  gamma-GTP: 1 IU/L
[6]
  TERMINAL_BW: 254.9 g
  APTT: 18.9 s
  Bas: 0%
  Eos: 1.5%
  Fbg: 238.5 mg/dL
  Hb: 14.4 g/dL
  Ht: 42.8%
  Lym: 75.5%
  MCH: 21.6 pg
  MCHC: 33.6%
  MCV: 64.1 fL
  Mono: 7%
  Neu: 16.2%
  PT: 12.2 s
  Plat: 113.7 x10_4/uL
  RBC: 668.5 x10_4/ul
  Ret: 5.2%
  WBC: 92.8 x10_2/uL
  KIDNEY_L: 1.1 g
  KIDNEY_R: 1.1 g
  KIDNEY_TOTAL: 2.1 g
  LIVER: 18.9 g
  A/G: 2.6
  ALP: 853.5 IU/L
  ALT: 34.2 IU/L
  AST: 61.2 IU/L
  BUN: 22 mg/dL
  CRE: 0.6 mg/dL
  Ca: 10.5 mg/dL
  Cl: 106.8 meq/L
  DBIL: 0.0225 mg/dL
  GLC: 190 mg/dL
  IP: 8.1 mg/dL
  K: 4.5 meq/L
  LDH: 201.5 IU/L
  Na: 140.7 meq/L
  PL: 157.5 mg/dL
  RALB: 4.7 g/dL
  TBIL: 0.2 mg/dL
  TC: 100.8 mg/dL
  TG: 35.8 mg/dL
  TP: 6.5 g/dL
  gamma-GTP: 1 IU/L
[7]
  TERMINAL_BW: 307.7 g
  APTT: 18.5 s
  Bas: 0%
  Eos: 1%
  Fbg: 224.4 mg/dL
  Hb: 14.3 g/dL
  Ht: 42.7%
  Lym: 73.6%
  MCH: 20.6 pg
  MCHC: 33.4%
  MCV: 61.6 fL
  Mono: 6.2%
  Neu: 19.8%
  PT: 12.5 s
  Plat: 99.2 x10_4/uL
  RBC: 694 x10_4/ul
  Ret: 4.5%
  WBC: 138 x10_2/uL
  KIDNEY_L: 1.2 g
  KIDNEY_R: 1.3 g
  KIDNEY_TOTAL: 2.5 g
  LIVER: 22.3 g
  A/G: 2.3
  ALP: 1092 IU/L
  ALT: 36.2 IU/L
  AST: 63.6 IU/L
  BUN: 21 mg/dL
  CRE: 0.6 mg/dL
  Ca: 10.4 mg/dL
  Cl: 107.4 meq/L
  DBIL: 0.022 mg/dL
  GLC: 186 mg/dL
  IP: 7.4 mg/dL
  K: 4.3 meq/L
  LDH: 163.8 IU/L
  Na: 141.7 meq/L
  PL: 144.2 mg/dL
  RALB: 4.4 g/dL
  TBIL: 0.3 mg/dL
  TC: 87.4 mg/dL
  TG: 36.6 mg/dL
  TP: 6.3 g/dL
  gamma-GTP: 1 IU/L
[8]
  TERMINAL_BW: 357.4 g
  APTT: 17.9 s
  Bas: 0%
  Eos: 1.5%
  Fbg: 204 mg/dL
  Hb: 15 g/dL
  Ht: 44.7%
  Lym: 79.2%
  MCH: 19.1 pg
  MCHC: 33.5%
  MCV: 57.1 fL
  Mono: 5.8%
  Neu: 14.2%
  PT: 12.5 s
  Plat: 99.8 x10_4/uL
  RBC: 783.2 x10_4/ul
  Ret: 2.7%
  WBC: 130.6 x10_2/uL
  KIDNEY_L: 1.3 g
  KIDNEY_R: 1.4 g
  KIDNEY_TOTAL: 2.8 g
  LIVER: 22.9 g
  A/G: 2.2
  ALP: 795 IU/L
  ALT: 42.5 IU/L
  AST: 64.5 IU/L
  BUN: 21 mg/dL
  CRE: 0.5 mg/dL
  Ca: 9.6 mg/dL
  Cl: 108.2 meq/L
  DBIL: 0.02 mg/dL
  GLC: 178.2 mg/dL
  IP: 7 mg/dL
  K: 4 meq/L
  LDH: 108.2 IU/L
  Na: 141.9 meq/L
  PL: 120 mg/dL
  RALB: 4 g/dL
  TBIL: 0.3 mg/dL
  TC: 69.5 mg/dL
  TG: 34.5 mg/dL
  TP: 5.9 g/dL
  gamma-GTP: 1.2 IU/L
